Results on 26 molecules are retold here after US8686048B2, “Immunomodulator and anti-inflammatory compounds” (Rhizen Pharmaceuticals SA, priority 2010, dated 2014).

pIC50: −log10 of the molar value.

The subject of one assay is IL-17. Kind of assay: Inhibition of IL-17 release from mouse splenocytes (PMA + ionomycin, ELISA). Format: cell-based, Balb/c mice. The note with it: Splenocyte, 10 μM, 3 h. How it is done:
2. Inhibition of IL-17 Release from Mouse Splenocytes:
Splenocytes isolated from Balb/c mice were re-suspended in RPMI medium at a concentration of 1×10^6 cells/ml and seeded in a 6 well plate. Cells were incubated with desired concentrations of the inhibitor for 15 min prior to induction with 10 ng/ml PMA+1 μM ionomycin. After a 3 h incubation, supernatant was collected and analyzed for IL-17 concentration using an ELISA kit. Data were analyzed using GraphPad Prism. IC50 values for each compound were determined based on the percent inhibition due to the test compound compared to the control.
Background: In an ELISA, binding on a coated surface is turned into a signal by an enzyme label.

In another assay the target is T1, h-DHODH (Homo sapiens, UniProt Q02127).
T1 construct: endogenous in cells; host or cells: U937 cells (membrane fraction, solubilised with 1% octyl glucoside)
Description: Dihydro-orotate dehydrogenase inhibition assay (U937 membrane preparations, DCIP reduction). Conditions: U937 membrane preparation; for inhibition at 0.3 µM: compound tested at 0.3 uM (footnote *). Format: biochemical. The procedure: Dihydro-Orotate Dehydrogenase Inhibition Assay
Dihydro-orotate dehydrogenase (DHODH) catalyzes the […] of dihydro-orotate to orotate during de novo biosynthesis of pyrimidines Inhibition of DHODH activity in U937 membrane preparations was measured by the dihydro-orotate driven reduction of 2,6 dichloroindophenol (DCIP).
U937 cells were homogenized in 20 mM Tris/HCl (pH 7.2) containing 1 mM EDTA. […] Following washes, the pellet was dissolved in 20 mM Tris/HCl containing 150 mM NaCl, 1 mM EDTA, and 1% octyl glucoside on ice for 1 h. Particulate matter was removed by centrifugation at 100000×g for 1 h at 4° C. […] The mixture was incubated at 37° C. for 4 h before measuring the change in absorbance on a plate reader (BMG Labtech., Germany) at 600 nm. Data were analyzed using GraphPad Prism. IC50 for each compound was determined based on the percent inhibition of dihydro-orotate […].

T1 sequence (Q02127 whole entry): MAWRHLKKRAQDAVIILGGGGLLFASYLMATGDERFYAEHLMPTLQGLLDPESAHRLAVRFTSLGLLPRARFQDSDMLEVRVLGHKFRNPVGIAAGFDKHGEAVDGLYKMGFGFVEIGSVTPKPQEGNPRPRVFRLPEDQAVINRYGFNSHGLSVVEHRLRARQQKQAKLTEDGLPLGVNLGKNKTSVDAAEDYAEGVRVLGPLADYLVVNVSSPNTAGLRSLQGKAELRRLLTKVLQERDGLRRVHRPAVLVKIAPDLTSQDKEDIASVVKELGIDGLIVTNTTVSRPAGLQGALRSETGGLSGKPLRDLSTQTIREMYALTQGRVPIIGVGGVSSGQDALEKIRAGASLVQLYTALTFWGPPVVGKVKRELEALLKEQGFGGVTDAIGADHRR

For orientation: inhibition means the change of the read-out against control, counted positive when it falls. Broadly, the pIC50 is −log10 of the IC50, conventionally taken in molar units. The low end stands for a high IC50, the high end for a low IC50. As to `Cc1c[nH]c2ccc(-c3cc(F)c(NC(=O)c4ccccc4C(=O)O)c(F)c3)cc12` [Example 63, 2-[2,6-difluoro-4-(3-methyl-1H-indol-5-yl)phenylcarbamoyl]benzoic acid], the inhibition at 10 µM with IL-17 worked out at 0%. At h-DHODH, this molecule showed an inhibition at 1 µM of 76.7% and a pIC50 of 7.66.
For the molecule `COc1cc(-c2cc(F)c(NC(=O)c3ccccc3C(=O)O)c(F)c2)ccc1F` [Example 62, 2-(3,4′,5-trifluoro-3′-methoxybiphenyl-4-ylcarbamoyl)benzoic acid], in the assay on IL-17, the inhibition at 10 µM is 8.34%. Further, at 1 µM the inhibition on h-DHODH was 12.4%.
On to `O=C(O)c1ccccc1C(=O)Nc1c(F)cc(-c2ccc3c(c2)OCCO3)cc1Cl` [Example 67, 2-[2-chloro-4-(2,3-dihydrobenzo[b][1,4]dioxin-6-yl)-6-fluorophenylcarbamoyl]benzoic acid], for which the inhibition at 10 µM in the assay on IL-17 came out at 3.56%. The molecule further came in with an inhibition at 1 µM against h-DHODH of 54.1%.
In the case of `O=C(O)c1ccccc1C(=O)Nc1c(F)cc(-c2cccc(OC(F)F)c2)cc1F` [Example 43, 2-[3′-(Difluoromethoxy)-3,5-difluorobiphenyl-4-ylcarbamoyl]benzoic acid], the inhibition at 10 µM in the assay with IL-17 worked out at 6.82%. At h-DHODH, this molecule gave an inhibition at 1 µM of 58.2% and a pIC50 of 6.74.
Regarding `O=C(O)c1ccccc1C(=O)Nc1c(F)cc(-c2ccc3c(c2)OCO3)cc1Cl` [Example 48, 2-[4-(Benzo[d][1,3]dioxol-5-yl)-2-chloro-6-fluorophenylcarbamoyl]benzoic acid], the inhibition at 10 µM in the assay on IL-17 is 22%. In addition, the inhibition at 1 µM against h-DHODH was 47.1%.
Take `C/C(O)=C(\C#N)C(=O)Nc1ccc(C(F)(F)F)cc1` [Teriflunomide, reference compound]: the inhibition at 10 µM with IL-17 was determined as 0%; against h-DHODH (compound tested at 10 uM) it was 77.2%.
On to `COc1cc(Cl)cc(-c2cc(F)c(NC(=O)c3ccccc3C(=O)O)c(F)c2)c1` [Example 55, 2-(3′-Chloro-3,5-difluoro-5′-methoxybiphenyl-4-ylcarbamoyl)benzoic acid], for which, in the assay with IL-17, the inhibition at 10 µM was 5.66%. Moreover, on h-DHODH, testing at 1 µM gave an inhibition of 44.5%.
Turning to `COc1cc(F)cc(-c2cc(F)c(NC(=O)c3ccccc3C(=O)O)c(F)c2)c1` [Example 46, 2-(3,3′,5-Trifluoro-5′-methoxybiphenyl-4-ylcarbamoyl)benzoic acid], the inhibition at 10 µM in the assay on IL-17 was found to be 3.69%. The molecule further gave an inhibition at 1 µM against h-DHODH of 56%.
Turning to `O=C(O)c1ccccc1C(=O)Nc1c(F)cc(-c2cccc(OC(F)F)c2)cc1Cl` [Example 44, 2-[3-Chloro-3′-(difluoromethoxy)-5-fluorobiphenyl-4-ylcarbamoyl]benzoic acid], the inhibition at 10 µM with IL-17 was 35%. On h-DHODH, this molecule gave an inhibition at 1 µM of 71.1% and a pIC50 of 7.04.
Regarding `COc1cccc(-c2ccc(NC(=O)c3ccccc3C(=O)O)c(F)c2)c1` [Example 69, 2-(3-fluoro-3′-methoxybiphenyl-4-ylcarbamoyl)benzoic acid], in the assay with IL-17, the inhibition at 10 µM was 5.54%. 1 µM produced 22% inhibition against h-DHODH.
Regarding `O=C(O)c1ccccc1C(=O)Nc1c(F)cc(-c2ccc3c(c2)CCO3)cc1Cl` [Example 53, 2-[2-Chloro-4-(2,3-dihydrobenzofuran-5-yl)-6-fluorophenylcarbamoyl]benzoic acid], in the assay on IL-17, the inhibition at 10 µM stood at 8.28%.
Consider `CCOc1cccc(-c2cc(F)c(NC(=O)c3c(Cl)ccc(Cl)c3C(=O)O)c(F)c2)c1` [Example 28, 3,6-dichloro-2-(3′-ethoxy-3,5-difluorobiphenyl-4-ylcarbamoyl)benzoic acid], for which the inhibition at 10 µM in the assay with IL-17 turned out to be 18.8%. Moreover, at h-DHODH, the inhibition at 1 µM turned out to be 12.9%.
`CCOc1cccc(-c2cc(F)c(NC(=O)c3ccccc3CO)c(Cl)c2)c1` [Example 36, N-(3-Chloro-3′-ethoxy-5-fluorobiphenyl-4-yl)-2-(hydroxymethyl)benzamide]: the inhibition at 10 µM with IL-17 stood at 45.5%.
`COc1ccc(-c2cc(F)c(NC(=O)c3ccccc3C(=O)O)c(Cl)c2)cc1OC` [Example 56, 2-(3-Chloro-5-fluoro-3′,4′-dimethoxybiphenyl-4-ylcarbamoyl)benzoic acid]: the inhibition at 10 µM in the assay with IL-17 stood at 5.49%. The same molecule showed an inhibition at 1 µM against h-DHODH of 1.77%.
Consider `O=C(O)c1ccccc1C(=O)Nc1c(F)cc(-c2ccc3c(c2)CCO3)cc1F` [Example 52, 2-[4-(2,3-Dihydrobenzofuran-5-yl)-2,6-difluorophenylcarbamoyl]benzoic acid], for which, in the assay on IL-17, the inhibition at 10 µM worked out at 13.8%. The molecule further returned an inhibition at 1 µM against h-DHODH of 12.8%.
Regarding `O=C(O)c1ccccc1C(=O)Nc1ccc(-c2ccccc2)cc1` [Example 85, 2-(biphenyl-4-ylcarbamoyl)benzoic acid], the inhibition at 10 µM in the assay with IL-17 turned out to be 13%. The molecule further had an inhibition at 0.3 µM at h-DHODH of 15.1%.
On to `O=C(O)c1ccccc1C(=O)Nc1c(F)cc(-c2cccc(OCC(F)(F)F)c2)cc1Cl` [Example 68, 2-[3-chloro-5-fluoro-3′-(2,2,2-trifluoroethoxy)biphenyl-4-ylcarbamoyl]benzoic acid], for which, at h-DHODH, 1 µM produced 86.5% inhibition and the pIC50 is 7.21.
For `COc1ccc(F)c(-c2cc(F)c(NC(=O)c3ccccc3C(=O)O)c(Cl)c2)c1` [Example 61, 2-(3-chloro-2′,5-difluoro-5′-methoxybiphenyl-4-ylcarbamoyl)benzoic acid], the inhibition at 10 µM with IL-17 stood at 4.23%. Besides, the inhibition at 1 µM against h-DHODH turned out to be 73.7%.
Take `CCc1cccc(-c2cc(F)c(NC(=O)c3ccccc3C(=O)O)c(F)c2)c1` [Example 84, 2-(3′-ethyl-3,5-difluorobiphenyl-4-ylcarbamoyl)benzoic acid]: the inhibition at 10 µM in the assay on IL-17 was determined as 12.1%. Moreover, on h-DHODH, the inhibition at 0.3 µM stood at 36.6%.
For `COc1ccc(-c2cc(F)c(NC(=O)c3ccccc3C(=O)O)c(F)c2)cc1OC` [Example 49, 2-(3,5-Difluoro-3′,4′-dimethoxybiphenyl-4-ylcarbamoyl)benzoic acid], the inhibition at 10 µM in the assay with IL-17 turned out to be 3.95%.
Consider `COc1cc(-c2cc(F)c(NC(=O)c3ccccc3C(=O)O)c(Cl)c2)ccc1Cl` [Example 60, 2-(3,4′-Dichloro-5-fluoro-3′-methoxybiphenyl-4-ylcarbamoyl)benzoic acid], for which the inhibition at 10 µM with IL-17 is 20.3%. On h-DHODH, this molecule had an inhibition at 1 µM of 41.8%.
As to `COc1ccc(Cl)c(-c2cc(F)c(NC(=O)c3ccccc3C(=O)O)c(F)c2)c1` [Example 45, 2-(2′-Chloro-3,5-difluoro-5′-methoxybiphenyl-4-ylcarbamoyl)benzoic acid], in the assay with IL-17, the inhibition at 10 µM stood at 48.5%. On h-DHODH, this molecule showed an inhibition at 1 µM of 96.2% and a pIC50 of 7.36.
As to `CCOc1cccc(-c2cc(F)c(NC(=O)c3ccccc3C(=O)O)c(Cl)c2)c1F` [Example 66, 2-(3-chloro-3′-ethoxy-2′,5-difluorobiphenyl-4-ylcarbamoyl)benzoic acid], at h-DHODH, the inhibition at 1 µM was found to be 87.5% and the pIC50 is 7.07.
Consider `COc1ccc(Cl)c(-c2cc(F)c(NC(=O)c3ccccc3C(=O)O)c(Cl)c2)c1` [Example 57, 2-(2′,3-Dichloro-5-fluoro-5′-methoxybiphenyl-4-ylcarbamoyl)benzoic acid], for which, at h-DHODH, the inhibition at 1 µM was determined as 68.1%.
For `O=C(O)c1ccccc1C(=O)Nc1c(F)cc(OCc2ccccc2)cc1F` [Example 40, 2-[4-(Benzyloxy)-2,6-difluorophenylcarbamoyl]benzoic acid], the inhibition at 10 µM with IL-17 is 8.79%.
On to `Cc1nn(C)c2ccc(-c3cc(F)c(NC(=O)c4ccccc4C(=O)O)c(F)c3)cc12` [Example 54, 2-[4-(1,3-Dimethyl-1H-indazol-5-yl)-2,6-difluorophenylcarbamoyl]benzoic acid], for which, in the assay with IL-17, the inhibition at 10 µM was 22.6%.
